{
  "source": "patent US20060019907A1",
  "about": "“Guggulsterone: an inhibitor of nuclear factor - kappaB and IkappaBalpha kinase activation and uses thereof” (Research Development Foundation, priority 2004, published 2006)",
  "key": {"[1]": {"molecular_target": "farnesoid X receptor (FXR) (Homo sapiens, UniProt Q96RI1)", "sequence (Q96RI1 whole entry, species assumed)": "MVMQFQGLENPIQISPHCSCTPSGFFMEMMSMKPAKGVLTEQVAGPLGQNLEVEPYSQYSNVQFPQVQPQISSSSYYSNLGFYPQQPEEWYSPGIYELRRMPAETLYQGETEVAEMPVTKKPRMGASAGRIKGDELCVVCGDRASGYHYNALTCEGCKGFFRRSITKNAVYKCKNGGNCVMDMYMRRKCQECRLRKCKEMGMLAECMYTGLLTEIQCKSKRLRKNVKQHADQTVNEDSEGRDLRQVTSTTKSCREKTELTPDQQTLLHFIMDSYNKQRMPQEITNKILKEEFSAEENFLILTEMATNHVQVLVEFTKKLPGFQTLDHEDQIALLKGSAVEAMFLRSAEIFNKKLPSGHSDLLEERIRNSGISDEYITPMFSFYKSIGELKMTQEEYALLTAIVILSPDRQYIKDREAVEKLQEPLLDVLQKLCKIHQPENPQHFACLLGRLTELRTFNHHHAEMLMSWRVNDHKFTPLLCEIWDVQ", "conditions": "cited from earlier work"}, "[2]": {"system": "MKK4 mutants and wild type cells", "test": "Cytotoxicity (MTT uptake) in MKK4 mutants and wild type cells", "type": "cell-based", "conditions": "72 h", "method": "Cytotoxicity assay. The cytotoxic effects of guggulsterone was determined by the MTT uptake method. Briefly, 5000 cells were incubated with guggulsterone in triplicate in a 96-well plate at 37° C. MTT solution was then added to each well. After a 2-h incubation at 37° C., extraction buffer (20% SDS, 50% dimethylformamide) was added, the cells were incubated overnight at 37° C., and the OD was then measured at 570 nm using a 96-well multiscanner (Dynex Technologies, MRX Revelation, Chantilly, Va.)."}, "PARP": {"system": "PARP", "test": "PARP cleavage assay, TNF plus guggulsterone", "type": "cell-based, human", "conditions": "KBM-5, serum starved 24 hours; TNF in combination with guggulsterone", "method": "PARP cleavage assay: For detection of cleavage products of PARP, whole-cell extracts were prepared by subjecting the guggulsterone-treated cells to lysis in lysis buffer (20 mM Tris, pH 7.4; 250 mM NaCI; 2 mM EDTA, pH 8.0; 0.1% Triton-X 100; 0.01 μg/ml aprotinin; 0.005 μg/ml leupeptin; 0.4 mM PMSF; and 4 mM NaVO4). Lysates will be spun at 14000 rpm for 10 min to remove insoluble material, resolved by 10% SDS PAGE, and probed with PARP antibodies. PARP is cleaved from the 116-kDa intact protein into 85-kDa and […] peptide products. To detect cleavage products of procaspase-3 and procaspase-9, whole-cell extracts will be resolved by 10% SDS PAGE and probed with appropriate antibodies."}, "NF-κB [3]": {"system": "NF-κB", "test": "RANKL-induced NF-κB activation by EMSA in RAW 264.7 cells", "type": "cell-based, mouse"}, "COX2 promoter": {"system": "COX2 promoter", "test": "COX-2 promoter-dependent reporter luciferase gene expression", "type": "cell-based, human", "conditions": "0.1 nM TNF 24 hours", "method": "COX-2 Promoter-dependent Reporter Luciferase Gene Expression: COX-2 promoter activity was examined as described elsewhere (Shishodia et al., 2003). To further determine the effect of guggulsterone on COX-2 promoter, […] cells were seeded at a concentration of 1.5×10^5 cells per well in six-well plates. After overnight culture, the cells in each well were transfected with 2 μg DNA consisting of COX-2 promoter-luciferase reporter plasmid, along with 6 μl of LIPOFECTAMINETM 2000 (Life Technologies, Inc.) according to the manufacturer's protocol. The COX-2 promoter (-375 to +59), amplified from human genomic DNA by using the primers [NT] (sense) (SEQ ID NO:3) and [NT] (antisense) (SEQ ID NO:4), was provided by Dr. Xiao-Chun Xu (M.D. Anderson Cancer Center). After a 6 hour exposure to the transfection mixture, the cells were incubated in medium containing guggulsterone for 12 hours. The cells were exposed to TNF (0.1 nM) for 24 hours and then harvested. Luciferase activity is measured by using the Promega luciferase assay system according to the manufacturer's protocol and detected by using […] 2010 (Analytical Luminescence Laboratory, San Diego, Calif.)."}, "NF-κB [4]": {"system": "NF-κB", "test": "NF-κB-dependent reporter gene (SEAP) transcription", "type": "cell-based, human", "method": "NF-κB-dependent Reporter Gene Transcription: The effect of guggulsterone on TNF-induced NF-κB dependent reporter gene transcription was measured as previously described (Manna et al., 2000). Briefly, H1299 cells (5×10^5 cells/well) were plated in six-well plates and transiently transfected the next day by LIPOFECTAMINETM 2000 method with pNF-κB-SEAP using the manufacturer's protocol. To examine TNF-induced reporter gene expression, cells was transfected with 2 μg of the SEAP expression plasmid. After 18 hours, medium was removed, cells were rinsed and treated with various doses of guggulsterone for 4 hours and then treated with TNF. Twenty four hours later, the cell culture medium was harvested and analyzed for alkaline phosphatase (SEAP) activity essentially according to the protocol described by the manufacturer (Clontech, Palo Alto, Calif.) using a 96-well fluorescence plate reader ([…]; Labsystems, Chicago, Ill.) with excitation set at 360 nm and emission set at 460 nm."}, "RAW 264.7 cells": {"system": "RAW 264.7 cells", "test": "Tumor cell (MDA-MB-468, U266) co-incubation-induced osteoclastogenesis", "type": "cell-based, mouse", "conditions": "RAW 264.7 co-incubation, GS 5 μM"}, "U937 cells": {"system": "U937 cells", "test": "Cell cycle, flow cytometric analysis", "type": "cell-based, human", "conditions": "10 μM, propidium iodide flow cytometry", "method": "Flow cytometric analysis. To determine the effect of guggulsterone on the cell cycle, U937 cells were treated for different times, washed, and fixed with 70% ethanol. After an overnight incubation at −20° C., cells were washed with PBS, and then suspended in staining buffer (Propidium iodide, 10 μg/ml; Tween-20, 0.5%; RNase, 0.1% in PBS). The cells were analyzed using a FACS Vantage flow cytometer that uses CellQuest acquisition and analysis programs (Becton Dickinson, San Jose, Calif.). Gating was set to exclude cell debris, cell doublets, and cell clumps."}},
  "data": [
    {"smiles": "CC=C1C(=O)C[C@H]2[C@@H]3CCC4=CC(=O)CC[C@]4(C)[C@H]3CC[C@]12C", "note": "[guggulsterone, 4,17(20)-pregnadiene-3,16-dione]", "values": [
      {"measurement": "action on bile acid receptor farnesoid X receptor (FXR)", "setting": "[1]; Urizar et al., 2002, Wu et al.", "value": "antagonist"},
      {"measurement": "expression of bile acid-activated genes", "setting": "[1]; Urizar et al., 2002, Cui et al., 2003", "value": "decrease the expression of bile acid-activated genes"},
      {"measurement": "guggulsterone induced cytotoxicity, dependence on MKK4", "setting": "[2]", "value": "MKK4 is required for guggulsterone induced cytotoxicity"},
      {"measurement": "caspase-induced cleavage of PARP activated by TNF", "setting": "PARP", "value": "enhanced the caspase-induced cleavage of PARP activated by TNF"},
      {"measurement": "concentration of complete inhibition of RANKL-induced NF-κB activation", "setting": "NF-κB [3]; RAW 264.7, 10 nM RANKL", "value": 50, "unit": "µM"},
      {"measurement": "inhibition of RANKL-induced NF-κB, dose dependence", "setting": "NF-κB [3]; RAW 264.7, 10 nM RANKL", "value": "increased with dose"},
      {"measurement": "RANKL-induced NF-κB activation (EMSA)", "setting": "NF-κB [3]; RAW 264.7, 50 μM, 10 nM RANKL", "value": "completely abrogated the RANKL-induced NF-κB activation"},
      {"measurement": "RANKL-induced NF-κB activation (Example 1)", "setting": "NF-κB [3]; osteoclast precursor cells", "value": "inhibits RANKL-induced NF-κB activation"},
      {"measurement": "TNF-induced COX2 promoter activity", "setting": "COX2 promoter", "value": "abolished the COX2 promoter activity in a dose-dependent manner"},
      {"measurement": "NF-κB-dependent SEAP expression induced by TNFR, TRADD, NIK and IKKβ plasmids", "setting": "NF-κB [4]; H1299, 50 μM, 4 hours", "value": "suppressed reporter gene expression induced by TNFR, TRADD, NIK and IKKβ plasmids"},
      {"measurement": "NF-κB-dependent SEAP expression induced by p65 plasmid", "setting": "NF-κB [4]; H1299, 50 μM, 4 hours", "value": "had no effect on that induced by p65"},
      {"measurement": "TNF-induced NF-κB-dependent SEAP expression", "setting": "NF-κB [4]; H1299 cells, 0.1 nM TNF 24 hours", "value": "inhibited by guggulsterone in a dose-dependent manner"},
      {"measurement": "osteoclast differentiation induced by co-incubation of U266 cells with macrophages", "setting": "RAW 264.7 cells", "value": "induced osteoclast differentiation was suppressed"},
      {"measurement": "MDA-MB-468 cells-induced and U266 cells-induced osteoclast differentiation", "setting": "RAW 264.7 cells; 5 days", "value": "suppressed osteoclastogenesis"},
      {"measurement": "cell cycle arrest", "setting": "U937 cells", "value": "arrested the cell cycle in S-phase"}
    ]}
  ]
}
